According to publication PMC4336144, “Screening the Medicines for Malaria Venture "Malaria Box" against the Plasmodium falciparum Aminopeptidases, M1, M17 and M18” (PLoS ONE, 2015):
Read-outs that look alike come from different tables or passages of the source.

Experiments:
[1] = target: T1, PfA-M17 (Plasmodium falciparum, UniProt Q8IL11); test: Determination of Ki values (Dixon plots, H-Leu-NHMec); assay type: biochemical; details: for Ki: Dixon plot
T1 construct: made in house; host or cells: Escherichia coli
T1 sequence (Q8IL11 84-605 limits assumed): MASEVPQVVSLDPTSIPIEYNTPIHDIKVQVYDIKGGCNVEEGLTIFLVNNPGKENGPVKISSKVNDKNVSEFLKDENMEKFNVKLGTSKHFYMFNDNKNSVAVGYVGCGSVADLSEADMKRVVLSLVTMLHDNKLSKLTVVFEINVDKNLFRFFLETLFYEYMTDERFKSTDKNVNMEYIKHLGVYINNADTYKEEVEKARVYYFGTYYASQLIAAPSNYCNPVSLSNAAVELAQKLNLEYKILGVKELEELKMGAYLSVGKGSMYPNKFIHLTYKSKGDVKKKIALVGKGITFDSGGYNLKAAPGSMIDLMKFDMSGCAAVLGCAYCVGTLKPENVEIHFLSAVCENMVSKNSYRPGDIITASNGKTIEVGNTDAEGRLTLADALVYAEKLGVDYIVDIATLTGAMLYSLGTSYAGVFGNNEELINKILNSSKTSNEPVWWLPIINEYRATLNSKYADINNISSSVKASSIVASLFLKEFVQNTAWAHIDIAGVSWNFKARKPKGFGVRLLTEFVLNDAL
Experimental: (§1) MMV020750 was purchased from InterBioScreen (catalog number STOCK2S-51608) and MMV666023 was purchased from ChemBridge (catalog number 5566248). The MMV020750 derivatives 1, 2 and 3 were purchased from Ambinter (catalog numbers AMB425981, AMB2311364 and AMB8506251 respectively). 4-(4,5-Diphenyl-1H-imidazol-2-yl)benzoic acid (4) was purchased from TCI Chemicals, while 4-(4,5-diphenyl-1H-imidazol-2-yl)-N-hydroxybenzamide (5) was prepared from 4 as described (S1 Methods). Aminopeptidase activity of both PfA-M1 and PfA-M17 enzymes was determined by measuring the release of the fluorogenic leaving group, NHMec, from the fluorogenic peptide L-Leucine-7-amido-4-methylcoumarin hydrochloride (H-Leu-NHMec) (Sigma L2145). The assay protocol devised by Stack CM, et al, (J. Biol Chem, 2007) was modified and used, with the reactions were carried out at 37°C and monitored using a spectrofluorometer (BMG FLUOstar) with excitation at 355 nm and emission at 460 nm. Each enzyme was pre-incubated in 50 mM Tris pH 8.0, 2 mM CoCl2; 5% DMSO with each inhibitor for 10 min prior to the addition of substrate. Inhibitor concentration was assayed between 0 and 500 μM final for each compound, and repeated over a narrowed range if necessary. The fluorescence signal was monitored until a final steady state velocity, V, was obtained. The K i values were then evaluated using Dixon plots of 1/V versus inhibitor concentration while the substrate concentration was maintained lower than that of the Km of the enzyme.
This was a particular problem with the PfA-M17 enzyme assays where we noted that at higher concentrations of 4, a decrease in fluorescence was observed. We hypothesise that this is a result of PfA-M17 binding to the compound and quenching the intrinsic fluorescence. […] We therefore chose to analyse a reduced concentration range for 4.

[2] = target: T1, PfA-M17; test: Secondary screening against individual enzyme; assay type: biochemical; details: 100 μM compound; for reduction of PfA-M17 activity: n = 3
Experimental: (§2) Aminopeptidase activity of each individual enzyme in the presence of a single MMV compound (100 μM) was determined using Leu-Mec for both PfA-M1 (15 nM) and PfA-M17 (80 nM) or Glu-pNA for PfM18AAP (125 nM). Reactions were carried out in 96-well microtitre plates (200 μl total volume) in 50 mM Tris-HCl pH 8.0, 2 mM CoCl2 at 37°C. Following a 10 min incubation (enzyme and compound) at 37°C, reactions were initiated by addition of enzyme specific substrate. Progress curves were monitored using a FLUOstar Omega multimode reader (BMG LabTech) for 1.5 h at 37°C. As activity references, individual enzyme 'no compound' controls and 'positive inhibitor' controls were included in each 96 well plate assay. We applied a cut-off of < 10% activity in the presence of 100 μM compound for selection to the next phase. Compounds that were selected to proceed were then used in further assays to obtain n = 3.

[3] = target: T2, PfA-M1 (Plasmodium falciparum, UniProt O96935); test: Secondary screening against individual enzyme; assay type: biochemical; details: 100 μM compound
T2 construct: made in house; host or cells: Escherichia coli
T2 sequence (O96935 195-1085 limits assumed): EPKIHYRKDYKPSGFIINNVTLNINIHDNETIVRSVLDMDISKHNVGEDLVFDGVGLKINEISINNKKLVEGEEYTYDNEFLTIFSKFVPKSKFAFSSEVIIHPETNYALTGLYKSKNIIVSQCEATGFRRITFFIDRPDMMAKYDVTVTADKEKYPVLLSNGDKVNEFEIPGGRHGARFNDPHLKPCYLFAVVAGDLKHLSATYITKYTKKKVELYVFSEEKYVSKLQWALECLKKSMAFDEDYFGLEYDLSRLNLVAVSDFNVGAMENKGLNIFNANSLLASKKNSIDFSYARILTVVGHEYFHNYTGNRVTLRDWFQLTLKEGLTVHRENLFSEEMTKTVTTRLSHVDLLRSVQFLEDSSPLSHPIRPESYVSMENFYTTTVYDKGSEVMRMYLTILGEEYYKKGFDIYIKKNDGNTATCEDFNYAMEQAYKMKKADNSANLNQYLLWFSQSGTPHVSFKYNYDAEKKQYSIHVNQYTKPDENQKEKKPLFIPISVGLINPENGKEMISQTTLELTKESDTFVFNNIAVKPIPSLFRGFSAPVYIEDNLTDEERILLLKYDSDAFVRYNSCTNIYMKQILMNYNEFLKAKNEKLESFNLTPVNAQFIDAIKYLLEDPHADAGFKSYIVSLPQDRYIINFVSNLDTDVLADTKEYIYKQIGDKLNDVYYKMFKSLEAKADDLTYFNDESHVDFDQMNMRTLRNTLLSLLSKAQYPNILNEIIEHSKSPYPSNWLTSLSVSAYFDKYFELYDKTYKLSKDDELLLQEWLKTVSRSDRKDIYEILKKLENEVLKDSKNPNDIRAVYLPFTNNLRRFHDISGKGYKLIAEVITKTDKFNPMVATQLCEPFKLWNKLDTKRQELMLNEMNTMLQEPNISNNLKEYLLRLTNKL
Experimental: as §2

[4] = test system: asexual blood stage of 3D7 Pf; details: cited from earlier work
[5] = target: T2, PfA-M1; test: Determination of Ki values (Dixon plots, H-Leu-NHMec); assay type: biochemical
Experimental: as §1

[6] = test system: PfA-M1 and/or PfA-M17; test: Multiplex primary screen, fluorogenic substrate Leu-Mec; assay type: biochemical, Plasmodium falciparum; details: 100 μM compound, multiplex assay
Experimental: A multiplex enzyme assay was developed to complete the primary screen of 400 compounds that were provided to us by MMV and SCYNEXIS. Combined PfMAP (15 nM PfA-M1; 80 nM PfA-M17 and 125 nM PfM18AAP) aminopeptidase activity in the presence of a single MMV compound (100 μM solubilized in 100% dimethyl sulfoxide, DMSO, final DMSO concentration in assay = 10%) was determined by simultaneous measurement of the release of the fluorogenic leaving group, -NHMec, from L-Leucine-7-amido-4-methylcoumarin-HCl (Leu-Mec) (Sigma) as well as the hydrolysis of p-nitroanilide from the chromogenic substrate, L-Glutamic acid p-nitroanilide (Glu-pNA) (Sigma). The fluorogenic substrate records the combined activity of PfA-M1 and PfA-M17 while the p-nitroanilide substrate is specific for PfM18AAP. Reactions were carried out in 96-well microtitre plates (200 μL total volume) in 50 mM Tris-HCl pH 8.0, 2 mM CoCl2 at 37°C. Following a 10 min incubation (multi-enzyme and single compound) at 37°C, reactions were initiated by addition of both fluorogenic and chromagenic substrates. Progress curves were monitored using a FLUOstar Omega multimode reader (BMG LabTech) for 1.5 h at 37°C. As activity references, individual enzyme and multiple enzyme 'no compound' controls and 'positive inhibitor' controls (with 10% DMSO) were included in each 96 well plate assay.

[7] = ref Avery, read-out: EC50 (Avery)
[8] = ref ChEMBL, read-out: EC50 (ChEMBL)
[9] = Dixon plot, read-out: Ki PfA-M1

selectivity for PfA-M17 over M1 ([1]; from Ki values) [fold]	PfA-M1 activity retained in the presence of compound ([3]; n = 3, of total enzyme activity) [%]	Ki ([5]; Dixon plot including the 500 uM values, read-out: Ki (with all values) PfA-M1) [µM]	PfA-M17 activity, single dose secondary screen ([2]; n = 1)	PfA-M1 activity, single dose secondary screen ([3]; n = 1)	SMILES	mode of inhibition of PfA-M17 [1]	Ki [1] [µM]	reduction of PfA-M17 activity [2] [%]	% Pf Inhibition @ 5 μM [4] [%]	EC50 [4, 7] [µM]	EC50 [4, 8] [µM]	mode of inhibition of PfA-M1 [5]	Ki [5, 9] [µM]	Activity (PfA-M1 and/or PfA-M17) [6]	reduction of PfA-M1 activity ([3]; n = 3) [%]	selectivity for PfA-M1 over M17 ([5]; from Ki values) [fold]
6	75	225	–	–	COc1cc(-c2nc(-c3ccccc3)c(-c3ccccc3)[nH]2)cc(OC)c1O [MMV020750]	competitive	12	95	97	1.2	0.8	competitive	75	R	–	–
–	–	–	false positive	false positive	O=C(Nc1ccc(-c2nc3ccccc3[nH]2)cc1)c1ccc(Cl)c(Cl)c1 [MMV665840]	–	–	–	–	–	–	–	–	R	–	–
–	–	–	–	–	c1ccc(Cn2c(/N=N/c3c(Nc4ccccc4)ccc4ccccc34)nc3ccccc32)cc1 [MMV666023]	competitive	23	70	96	0.04	2.7	competitive	4.5	R	95	5
